Reference: patent US20230107941A1, “HEPATITIS B CAPSID ASSEMBLY MODULATORS” (Venatorx Pharmaceuticals, Inc., priority 2019, published 2023)
pEC50: −log10 of the molar value.

Assays:
HBV = test: In vitro antiviral assay: anti-HBV replication in HepAD38 cells (extracellular HBV DNA by QPCR); type: cell-based, hepatitis B virus (genotype D, serotype ayw); settings: Hepatitis B virus, HePAD38, 168 h, 7 days incubation, extracellular HBV DNA by QPCR, read-out: Anti-HBV EC50
Method in brief: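 HepG2-derived HepAD38 cells (HBV genotype D, ayw, tet-repressible CMV) induced by tetracycline withdrawal, treated 7 days at 37 °C with compound (1 μM to 10 pM, 10-fold steps). Supernatant HBV DNA quantified by QPCR against standard curve, percent of DMSO control; EC50 by 4-parameter fit; entecavir positive control.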

[1] = In vitro cytotoxicity assay (MTT cell viability) in HepG2 cells; type: cell-based, human; settings: human
Method in brief: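 CC50 was derived by 4-parameter fit of viability relative to vehicle controls, measured as MTT formazan absorbance at 492 nm after 3–4 h of reagent and DMSO solubilization. Before that, HepG2 cells seeded overnight at 20,000/well were incubated 7 days at 37°C with compound from 30 μM down to 1.0 nM in half-log steps.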

| Structure (SMILES) | pEC50 (HBV) | CC50 at 7 days [1] |
| --- | --- | --- |
| CC(=O)N1CC[C@H](NC(=O)C(=O)c2c(C)c(C(=O)Nc3ccc(F)c(C)c3)c(C)n2C)C[C@@H]1C [Example 166, 5-(2-(((2S,4S)-1-acetyl-2-methylpiperidin-4-yl)amino)-2-oxoacetyl)-N-(4-fluoro-3-methylphenyl)-1,2,4-trimethyl-1H-pyrrole-3-carboxamide] | 6.30 to 7.30 | > 30000 nM |
| Cc1c(C(=O)Nc2ccc(F)c(C#N)c2)c(C)n(C)c1C(=O)C(=O)NC(C)(C)C [Example 59, 5-(2-(tert-butylamino)-2-oxoacetyl)-N-(3-cyano-4-fluorophenyl)-1,2,4-trimethyl-1H-pyrrole-3-carboxamide] | > 7.30 | > 30000 nM |
| CC(=O)N1CC[C@H](NC(=O)C(=O)c2c(C)c(C(=O)Nc3ccc(F)c(C)c3)c(C)n2C)C[C@H]1C [Example 78, 5-(2-(((2R,4S)-1-acetyl-2-methylpiperidin-4-yl)amino)-2-oxoacetyl)-N-(4-fluoro-3-methylphenyl)-1,2,4-trimethyl-1H-pyrrole-3-carboxamide] | > 7.30 | > 30000 nM |
| CCC1(NC(=O)C(=O)c2c(C)c(C(=O)Nc3ccc(F)c(C)c3)c(C)n2C)CCN(c2cnccn2)CC1 [Example 50, 5-(2-((4-ethyl-1-(pyrazin-2-yl)piperidin-4-yl)amino)-2-oxoacetyl)-N-(4-fluoro-3-methylphenyl)-1,2,4-trimethyl-1H-pyrrole-3-carboxamide] | > 7.30 | > 30000 nM |
| Cc1cc(NC(=O)c2c(C)c(C(=O)C(=O)N[C@H]3CC[C@@H](S(C)(=O)=O)CC3)n(C)c2C)ccc1F [Example 1, N-(4-fluoro-3-methylphenyl)-1,2,4-trimethyl-5-(2-(((1s,4s)-4-(methylsulfonyl)cyclohexyl)amino)-2-oxoacetyl)-1H-pyrrole-3-carboxamide] | > 7.30 | > 30000 nM |
| CCc1c(C(=O)Nc2ccc(F)c(C)c2)c(C)n(C)c1C(=O)C(=O)N[C@H](C)C(F)(F)F [Example 90, (R)-4-ethyl-N-(4-fluoro-3-methylphenyl)-1,2-dimethyl-5-(2-oxo-2-((1,1,1-trifluoropropan-2-yl)amino)acetyl)-1H-pyrrole-3-carboxamide] | > 7.30 | 5000 to 30000 nM |
| Cc1cc(NC(=O)c2c(C)c(C(=O)C(=O)N[C@]3(C)CC[C@H](O)CC3)n(C)c2CC2CC2)ccc1F [Example 125, 2-(cyclopropylmethyl)-N-(4-fluoro-3-methylphenyl)-5-(2-(((1s,4s)-4-hydroxy-1-methylcyclohexyl)amino)-2-oxoacetyl)-1,4-dimethyl-1H-pyrrole-3-carboxamide] | > 7.30 | > 30000 nM |
| Cc1cc(NC(=O)c2c(C)c(C(=O)C(=O)NC3(CO)CCN(C(=O)c4cn(C)nc4C(F)F)CC3)n(C)c2C)ccc1F [Example 75, 5-(2-((1-(3-(difluoromethyl)-1-methyl-1H-pyrazole-4-carbonyl)-4-(hydroxymethyl)piperidin-4-yl)amino)-2-oxoacetyl)-N-(4-fluoro-3-methylphenyl)-1,2,4-trimethyl-1H-pyrrole-3-carboxamide] | > 7.30 | > 30000 nM |
| Cc1c(C(=O)Nc2cc(Cl)nc(Cl)c2)c(C)n(C)c1C(=O)C(=O)N[C@]1(C)CC[C@@H](O)CC1 [Example 9, N-(2,6-dichloropyridin-4-yl)-5-(2-(((1r,4r)-4-hydroxy-1-methylcyclohexyl)amino)-2-oxoacetyl)-1,2,4-trimethyl-1H-pyrrole-3-carboxamide] | > 7.30 | > 30000 nM |
| Cc1cc(NC(=O)c2c(C)c(C(=O)C(=O)NC3CCCN(CC(=O)O)C3)n(C)c2C)ccc1F (centres unmarked) [Example 172, 2-(3-(2-(4-((4-fluoro-3-methylphenyl)carbamoyl)-1,3,5-trimethyl-1H-pyrrol-2-yl)-2-oxoacetamido)piperidin-1-yl)acetic acid] | < 6.00 | > 30000 nM |
| Cc1cc(NC(=O)c2c(C)c(C(=O)C(=O)Nc3ccncc3N3CCOCC3)n(C)c2C)ccc1F [Example 54, N-(4-fluoro-3-methylphenyl)-1,2,4-trimethyl-5-(2-((3-morpholinopyridin-4-yl)amino)-2-oxoacetyl)-1H-pyrrole-3-carboxamide] | 6.00 to 6.30 | > 30000 nM |
| Cc1cc(NC(=O)c2c(C)c(C(=O)C(=O)N[C@]3(C)CC[C@H](O)CC3)n(C)c2-c2ccncc2)ccc1F [Example 162, N-(4-fluoro-3-methylphenyl)-5-(2-(((1s,4s)-4-hydroxy-1-methylcyclohexyl)amino)-2-oxoacetyl)-1,4-dimethyl-2-(pyridin-4-yl)-1H-pyrrole-3-carboxamide] | < 6.00 | > 30000 nM |
| CCc1c(C(=O)Nc2ccc(F)c(C)c2)c(C)c(C(=O)C(=O)N[C@]2(C)C[C@H](O)C2)n1C [Example 104, 2-ethyl-N-(4-fluoro-3-methylphenyl)-5-(2-(((1s,3s)-3-hydroxy-1-methylcyclobutyl)amino)-2-oxoacetyl)-1,4-dimethyl-1H-pyrrole-3-carboxamide] | > 7.30 | > 30000 nM |
| Cc1c(C(=O)Nc2ccc(F)c(C(N)=O)c2)c(C)n(C)c1C(=O)C(=O)NC(C)(C)C [Example 57, 5-(2-(tert-butylamino)-2-oxoacetyl)-N-(3-carbamoyl-4-fluorophenyl)-1,2,4-trimethyl-1H-pyrrole-3-carboxamide] | < 6.00 | > 30000 nM |
| Cc1cc(NC(=O)c2c(C)c(C(=O)C(=O)N[C@H]3CC[C@@H](S(C)(=O)=O)CC3)n(C)c2-c2ccccn2)ccc1F [Example 156, N-(4-fluoro-3-methylphenyl)-1,4-dimethyl-5-(2-(((1s,4s)-4-(methylsulfonyl)cyclohexyl)amino)-2-oxoacetyl)-2-(pyridin-2-yl)-1H-pyrrole-3-carboxamide] | < 6.00 | > 30000 nM |
| Cc1cc(NC(=O)c2c(C)c(C(=O)C(=O)N3CCOCC3)n(C)c2C)ccc1F [Example 187, N-(4-fluoro-3-methylphenyl)-1,2,4-trimethyl-5-(2-morpholino-2-oxoacetyl)-1H-pyrrole-3-carboxamide] | 6.00 to 6.30 | > 30000 nM |
| Cc1cc(NC(=O)c2c(C)c(C(=O)C(=O)N[C@H]3CC[C@@H](S(C)(=O)=O)CC3)n(C)c2-c2nccs2)ccc1F [Example 175, N-(4-fluoro-3-methylphenyl)-1,4-dimethyl-5-(2-(((1s,4s)-4-(methylsulfonyl)cyclohexyl)amino)-2-oxoacetyl)-2-(thiazol-2-yl)-1H-pyrrole-3-carboxamide] | < 6.00 | > 30000 nM |
| Cc1cc(NC(=O)c2c(C)c(C(=O)C(=O)N[C@H]3CC[C@@H](O)CC3)n(C)c2-c2nccs2)ccc1F [Example 177, N-(4-fluoro-3-methylphenyl)-5-(2-(((1s,4s)-4-hydroxycyclohexyl)amino)-2-oxoacetyl)-1,4-dimethyl-2-(thiazol-2-yl)-1H-pyrrole-3-carboxamide] | < 6.00 | > 30000 nM |
| CCC1(NC(=O)C(=O)c2c(C)c(C(=O)Nc3ccc(F)c(C)c3)c(C)n2C)CCN(C(=O)c2cnn(C)c2)CC1 [Example 38, 5-(2-((4-ethyl-1-(1-methyl-1H-pyrazole-4-carbonyl)piperidin-4-yl)amino)-2-oxoacetyl)-N-(4-fluoro-3-methylphenyl)-1,2,4-trimethyl-1H-pyrrole-3-carboxamide] | > 7.30 | > 30000 nM |
| Cc1cccc(NC(=O)c2c(C)c(C(=O)C(=O)NC(C)(C)C)n(C)c2C)c1F [Example 66, 5-(2-(tert-butylamino)-2-oxoacetyl)-N-(2-fluoro-3-methylphenyl)-1,2,4-trimethyl-1H-pyrrole-3-carboxamide] | > 7.30 | > 30000 nM |
| Cc1cc(NC(=O)c2c(C)c(C(=O)C(=O)N[C@H]3[C@@H]4CC[C@@H](C4)[C@H]3CO)n(C)c2C)ccc1F [Example 20, N-(4-fluoro-3-methylphenyl)-5-(2-(((1R,2S,3R,4S)-3-(hydroxymethyl)bicyclo[2.2.1]heptan-2-yl)amino)-2-oxoacetyl)-1,2,4-trimethyl-1H-pyrrole-3-carboxamide] | > 7.30 | > 30000 nM |
| Cc1c(C(=O)Nc2cc(F)c(F)c(F)c2)c(C)n(C)c1C(=O)C(=O)N[C@]1(C)CC[C@@H](O)CC1 [Example 25, 5-(2-(((1r,4r)-4-hydroxy-1-methylcyclohexyl)amino)-2-oxoacetyl)-1,2,4-trimethyl-N-(3,4,5-trifluorophenyl)-1H-pyrrole-3-carboxamide] | > 7.30 | > 30000 nM |
| Cc1cc(NC(=O)c2c(C3CC3)c(C(=O)C(=O)N[C@H]3CC[C@@H](S(C)(=O)=O)CC3)n(C)c2C)ccc1F [Example 100, 4-cyclopropyl-N-(4-fluoro-3-methylphenyl)-1,2-dimethyl-5-(2-(((1s,4s)-4-(methylsulfonyl)cyclohexyl)amino)-2-oxoacetyl)-1H-pyrrole-3-carboxamide] | > 7.30 | > 30000 nM |
| Cc1cc(NC(=O)c2c(C)c(C(=O)C(=O)N[C@]3(C)C[C@H](O)C3)n(C)c2-c2ccncc2)ccc1F [Example 161, N-(4-fluoro-3-methylphenyl)-5-(2-(((1s,3s)-3-hydroxy-1-methylcyclobutyl)amino)-2-oxoacetyl)-1,4-dimethyl-2-(pyridin-4-yl)-1H-pyrrole-3-carboxamide] | < 6.00 | > 30000 nM |
| CC(=O)N1CC[C@@H](NC(=O)C(=O)c2c(C)c(C(=O)Nc3ccc(F)c(C)c3)c(C)n2C)C(F)(F)C1 [Example 148, (R)-5-(2-((1-acetyl-3,3-difluoropiperidin-4-yl)amino)-2-oxoacetyl)-N-(4-fluoro-3-methylphenyl)-1,2,4-trimethyl-1H-pyrrole-3-carboxamide] | > 7.30 | > 30000 nM |
